From patent US20100331185A1, “Herbicidal Compositions of Lithium Glyphosate and Adjuvants” (COGNIS IP […], priority 2007, published 2010)
Read-outs that look alike come from different tables or passages of the source.

Tests used:
[1] = Protocol: 35.2 g of glyphosate tech (96%, 0.208 mol) was mixed with 20 g water in a flask. 8.4 g of LiOH monohydrate was added to this mixture with good mixing.
[2] = acid form, in water at 25° C.; cited from earlier work

| Structure (SMILES) | product pH (1%) [1] | Li glyphosate Solubility ([1]; solvent: Agnique KE 3658) [mg/mL] | Li glyphosate Solubility ([1]; solvent: Agnique ME 610) [mg/mL] | Li glyphosate Solubility ([1]; solvent: Exxsol D-110) [mg/mL] | Li glyphosate Solubility ([1]; solvent: N-Methyl pyrrolidone) [mg/mL] | Li glyphosate Solubility ([1]; solvent: Water) [mg/mL] | solubility in water [2] [% by weight] |
| --- | --- | --- | --- | --- | --- | --- | --- |
| O=C(O)CNCP(=O)([O-])O.[Li+] [Li glyphosate, lithium glyphosate] | 4.98 | <100 | <50 | <50 | <150 | <200 |  |
| O=C(O)CNCP(=O)(O)O [glyphosate] |  |  |  |  |  |  | 0.16 |
